For one experiment, the target named is T1, NPY Y2 receptor (Homo sapiens, UniProt P49146).
T1 construct: SH-SY5Y cells endogenously expressing Y2; endogenous in cells; host or cells: SH-SY5Y
T1 sequence (P49146 1-381): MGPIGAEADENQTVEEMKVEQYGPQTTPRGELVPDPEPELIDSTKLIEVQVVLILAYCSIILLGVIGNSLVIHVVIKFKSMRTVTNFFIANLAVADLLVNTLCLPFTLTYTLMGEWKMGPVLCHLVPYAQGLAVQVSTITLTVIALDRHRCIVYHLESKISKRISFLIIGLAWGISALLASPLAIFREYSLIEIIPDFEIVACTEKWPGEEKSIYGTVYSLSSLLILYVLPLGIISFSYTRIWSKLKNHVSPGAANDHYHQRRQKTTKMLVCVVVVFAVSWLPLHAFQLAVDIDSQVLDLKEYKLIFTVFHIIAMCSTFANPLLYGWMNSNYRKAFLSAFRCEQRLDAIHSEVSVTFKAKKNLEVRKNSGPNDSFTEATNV
Nature of the experiment: Receptor autoradiography competition binding (125I-hPYY) on SH-SY5Y cell membrane pellet sections. The note with it: SH-SY5Y membrane pellets, 125I-hPYY displacement; n ≥ 3; read-out: Binding affinity Y2 (IC50). Here is the method:
(§1) The neuroepithelioma cell line SK-N-MC endogenously expressing the NPY Y1 receptor was obtained from ATCC (HTB-10; LGC Standards, Teddington, Middlesex, UK) and cultured at 37°C and 5% CO2 in MEM with GlutaMax I and supplemented with 10% FBS, 100 U/ml penicillin and 100 μg/ml streptomycin, 1 mM MEM sodium pyruvate, and MEM non-essential amino acids (× 1). The neuroblastoma cell line SH-SY5Y endogenously expressing the NPY Y2 receptor, kindly provided by Dr. Paolo Paganetti (Novartis, Basel, Switzerland), was cultured at 37°C and 5% CO2 in MEM/Ham's F12 with GlutaMax I and supplemented with 10% FBS, 100 U/ml penicillin and 100 μg/ml streptomycin, 1 mM MEM sodium pyruvate, and MEM non-essential amino acids (× 1). All culture reagents were from Gibco BRL, Life Technologies, (Grand Island, NY, USA).
(§2) Binding affinities of the compounds were assessed using sections of cell membrane pellets of SK-N-MC for Y1 or SH-SY5Y for Y2, as described before. Briefly, membrane pellets were prepared and stored at -80°C, and receptor autoradiography was performed on 20-μm-thick cryostat (Microm HM 500, Walldorf, Germany) sections of the membrane pellets, mounted on microscope slides and stored at -20°C as previously described for other cell lines and receptors. The slides were preincubated in Krebs-Ringer solution (NaCl 119 mM, KCl 3.2 mM, KH2PO4 1.19 mM, MgSO4 1.19 mM, NaHCO3 25 mM, CaCl2 2.53 mM, D-glucose 10 mM; pH 7.4) for 60 min at room temperature. Then, they were incubated for 120 min in the incubation solution containing the Krebs-Ringer solution, 0.1% BSA, 0.05% bacitracin, and 10,000 cpm/100 μl of the ^125I-labeled human PYY (hPYY; 2,000 Ci/mmol; Anawa, Wangen, Switzerland). Membrane pellet sections were incubated with ^125I-hPYY in increasing concentrations ranging from 0.1 nM up to 1,000 nM of non-labeled hPYY, as control, or with the compounds to be tested. After the incubation, the slides were washed two times for 5 min and then rinsed four times in ice-cold preincubation solution. After drying, the slides were exposed to Kodak films Biomax MR® for 7 days. IC50 values were calculated after quantification of the data using a computer-assisted image processing system (Analysis Imaging System, Interfocus, Mering, Germany). Tissue standards (autoradiographic [^125I] and/or [^14C] microscales, GE Healthcare, Little Chalfont, UK) containing a known amount of isotope, cross-calibrated to tissue-equivalent ligand concentrations were used for quantification.

The target in experiment [1] is T2, NPY Y1 receptor (Homo sapiens, UniProt P25929).
T2 construct: SK-N-MC cells endogenously expressing Y1; host or cells: SK-N-MC
T2 sequence (P25929 1-384): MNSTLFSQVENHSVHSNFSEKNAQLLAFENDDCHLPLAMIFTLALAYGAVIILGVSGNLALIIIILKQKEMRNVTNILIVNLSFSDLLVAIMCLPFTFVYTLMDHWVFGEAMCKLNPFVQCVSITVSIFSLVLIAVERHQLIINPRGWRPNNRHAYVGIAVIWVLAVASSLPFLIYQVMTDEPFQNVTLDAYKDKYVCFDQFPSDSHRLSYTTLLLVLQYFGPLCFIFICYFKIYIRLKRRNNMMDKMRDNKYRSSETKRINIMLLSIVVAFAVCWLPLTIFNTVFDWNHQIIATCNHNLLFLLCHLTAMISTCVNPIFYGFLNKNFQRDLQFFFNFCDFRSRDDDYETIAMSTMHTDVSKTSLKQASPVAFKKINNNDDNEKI
Nature of the experiment: Forskolin-stimulated adenylate cyclase activity (cAMP flashplate assay) in SK-N-MC cells. The experiment is classed as cell-based. The note with it: 10 μM forskolin. Here is the method: Adenylate cyclase activity was determined in SK-N-MC cells using the adenylate cyclase activation flashplate assay (SMP004) from PerkinElmer (Waltham, MA, USA). SK-N-MC cells were seeded in 96-well culture plates at 25,000 cells/well and cultured for 48 h at 37°C and 5% CO2. Culture medium was then removed from the wells and fresh medium (100 μL) containing 0.5 mM 3-isobutyl-1-methylxanthine (IBMX) was added to each well. Cells were incubated for 30 min at 37°C. Medium was then removed and replaced with fresh medium containing 0.5 mM IBMX, with or without 10 μM forskolin and various concentrations of the peptides to be analyzed. Cells were incubated for 30 min at 37°C. After removal of the medium, cells were lysed and cAMP accumulation was determined using the SMP004 kit from PerkinElmer according to the instructions of the manufacturers.
Figure 4 Effect of various Y1 affine analogs on forskolin-stimulated intracellular cAMP accumulation in SK-N-MC cells. Cells were incubated for 30 min with 10 μM forskolin either alone, or with 10 μM forskolin in the presence of 20 μM or 100 nM of the reference compound [Leu^31, Pro^34]-PYY (LP-PYY), or with 10 μM forskolin in the presence of the various Y1 affine analogs either alone at a concentration of 20 μM or at a concentration of 20 μM in the presence of 100 nM LP-PYY. Intracellular cAMP accumulation was then determined as described in Methods. Results are shown as percentage of the 10 μM forskolin effect on intracellular cAMP accumulation.
Cells were incubated for 30 min with 10 μM forskolin in the presence of [Leu^31, Pro^34]-PYY (LP-PYY) at concentrations ranging between 0.01 nM and 20 μM alone (solid circle) or with 10 μM forskolin in the presence of LP-PYY at concentrations ranging between 0.01 nM and 20 μM supplemented with a fixed concentration of 20 μM of the analog 11 (solid square). […] Compound 11 given alone at a concentration of 20 μM has no effect on the accumulation of forskolin-stimulated cAMP (solid triangle).

Experiment [2] deals with T2, NPY Y1 receptor. Nature of the experiment: Receptor autoradiography competition binding (125I-hPYY) on SK-N-MC cell membrane pellet sections. On the procedure:
as §1, §2

The test system of the next experiment is Y5. Also noted: method as in PMID 12182951. The note with it: rats, in vivo; cited from earlier work.

Broadly, the IC50 is the midpoint of a concentration-inhibition curve.

Bridge positions count the residues as written; N and C are the ends. Square brackets hold non-standard residues; d marks the D form. Peptide text beside a SMILES is read from it. I, II: the chains in the order shown. * marks the point of attachment. DOTA = O=C(O)CN1CCN(CC(=O)O)CCN(CC(=O)*)CCN(CC(=O)O)CC1; Nle = CCCC[C@H](N)C(=O)O Bounds are passed on as bounds.

As to `CCCC[C@H](NC(=O)[C@H](CCCNC(=N)N)NC(=O)[C@H](Cc1c[nH]c2ccccc12)NC(=O)[C@H](CSSC[C@H](NC(=O)[C@@H]1CCCN1C(=O)[C@H](CC(N)=O)NC(=O)[C@@H](N)[C@@H](C)CC)C(=O)N[C@@H](Cc1c[nH]c2ccccc12)C(=O)N[C@@H](CCCNC(=N)N)C(=O)N[C@@H](CCCC)C(=O)N[C@@H](CCCNC(=N)N)C(=O)N[C@@H](Cc1ccc(O)cc1)C(N)=O)NC(=O)[C@@H]1CCCN1C(=O)[C@H](CCCCNC(=O)CN1CCN(CC(=O)O)CCN(CC(=O)O)CCN(CC(=O)O)CC1)NC(=O)[C@@H](N)[C@@H](C)CC)C(=O)N[C@@H](CCCNC(=N)N)C(=O)N[C@@H](Cc1ccc(O)cc1)C(N)=O` [Analog 11] (I: H-IK(DOTA)PCWR[Nle]RY-NH2 / II: H-INPCWR[Nle]RY-NH2; disulfide I:4-II:4), the IC50 on NPY Y2 receptor was above 1000 nM; on NPY Y1 receptor [2] (SK-N-MC membrane pellets, 125I-hPYY displacement, mean ± SEM, n ≥ 3, read-out: Binding affinity Y1 (IC50)), 13 ± 3 nM. On NPY Y1 receptor [1] (20 μM analog with increasing concentration of [Leu31,Pro34]-hPYY up to 20 μM), the “Shift of the dose response curve of [Leu31,Pro34]-hPYY to the right” value is listed as “at least three orders of magnitude”. Moreover, on NPY Y1 receptor [1] (analog 20 μM alone or with 100 nM [Leu31,Pro34]-hPYY), the “Functional assay cAMP for Y1” value is “Antagonist”. In addition, on NPY Y1 receptor [1] (analog alone at 20 μM), the “Inhibition of forskolin-stimulated cAMP accumulation, analog given alone” value is on record as “has no effect”. In addition, at NPY Y1 receptor [2] (SK-N-MC cell membrane pellet sections), the “Y1 binding affinity in words (displacement of 125I-hPYY)” value is on record as “high-affinity displacements of ^125I-hPYY”.
For “Bis(31/31')[Cys^31, Nva^34]NPY(27-36)-NH2”, the “Stimulation of food intake” value in the experiment on Y5 was “able to stimulate in vivo the food intake in rats”.
